Measurements: the CheMixHub viscosity set
Values joined by “and” are separate entries in the source; they are usually repeats but may differ in a detail not shown here. Equal entries are not always repeated.

Test: xn = mol fraction of the nth substance listed

CC(=O)c1ccc(C)cc1 + CNC(C)=O
308.15 K, 101 kPa
Conditions	viscosity [mPa·s]
x1 = 0.0617	3.091
x1 = 0.1321	2.867
x1 = 0.2004	2.666
x1 = 0.2836	2.469
x1 = 0.3629	2.286
x1 = 0.4632	2.08
x1 = 0.5582	1.927
x1 = 0.689	1.722
x1 = 0.8305	1.588

[Br-].[Br-].[Br-].[Sb+3] + CNc1ccccc1
323.15 K, 101 kPa
Conditions	viscosity [mPa·s]
x1 = 0.25	21.03
x1 = 0.333	107.7
x1 = 0.4	507
x1 = 0.45	1423
x1 = 0.5	2867
x1 = 0.53	3472
x1 = 0.55	3692
x1 = 0.57	3331
x1 = 0.6	2686
x1 = 0.65	1275

CCCCC(CC)COP(=O)(O)OCC(CC)CCCC (stereo unspecified) + CO
303.15 K, 101 kPa
Conditions	viscosity [mPa·s]
x1 = 0.0413	1.349
x1 = 0.0751	2.075
x1 = 0.1088	2.893
x1 = 0.1723	4.725
x1 = 0.2681	7.099
x1 = 0.3639	9.284
x1 = 0.4602	11.18
x1 = 0.6161	13.99
x1 = 0.7023	15.23
x1 = 0.8292	17.17
x1 = 0.928	18.67

C[N+](=O)[O-] + CO
viscosity [mPa·s]
Conditions	293.15 K	298.15 K	303.15 K	313.15 K
101 kPa, x1 = 0.0771	–	0.5277	–	–
101 kPa, x1 = 0.1586	–	0.5151	–	–
101 kPa, x1 = 0.216	–	0.503	–	–
101 kPa, x1 = 0.238	–	0.502	–	–
101 kPa, x1 = 0.24	–	0.501	–	–
101 kPa, x1 = 0.244	–	0.5	–	–
101 kPa, x1 = 0.2441	–	0.5082	–	–
101 kPa, x1 = 0.3345	–	0.5081	–	–
101 kPa, x1 = 0.4298	–	0.5102	–	–
101 kPa, x1 = 0.496	–	0.495	–	–
101 kPa, x1 = 0.5305	–	0.5169	–	–
101 kPa, x1 = 0.539	–	0.497	–	–
101 kPa, x1 = 0.579	–	0.5	–	–
101 kPa, x1 = 0.6375	–	0.5265	–	–
101 kPa, x1 = 0.7509	–	0.5426	–	–
101 kPa, x1 = 0.861	–	0.55	–	–
101 kPa, x1 = 0.863	–	0.55	–	–
101 kPa, x1 = 0.8715	–	0.5721	–	–
101 kPa, x1 = 0.875	–	0.554	–	–
101.33 kPa, x2 = 0.0503	0.617	–	0.551	0.493
101.33 kPa, x2 = 0.1004	0.596	–	0.528	0.473
101.33 kPa, x2 = 0.15	0.575	–	0.511	0.458
101.33 kPa, x2 = 0.2003	0.561	–	0.498	0.445
101.33 kPa, x2 = 0.2501	0.552	–	0.489	0.435
101.33 kPa, x2 = 0.3	0.542	–	0.479	0.427
101.33 kPa, x2 = 0.3502	0.536	–	0.474	0.421
101.33 kPa, x2 = 0.4	0.531	–	0.469	0.416
101.33 kPa, x2 = 0.4501	0.527	–	0.464	0.412
101.33 kPa, x2 = 0.5	0.525	–	0.461	0.408
101.33 kPa, x2 = 0.55	0.524	–	0.459	0.406
101.33 kPa, x2 = 0.6001	0.524	–	0.459	0.405
101.33 kPa, x2 = 0.65	0.525	–	0.458	0.405
101.33 kPa, x2 = 0.7	0.526	–	0.461	0.406
101.33 kPa, x2 = 0.7501	0.53	–	0.463	0.409
101.33 kPa, x2 = 0.8	0.538	–	0.468	0.412
101.33 kPa, x2 = 0.8501	0.545	–	0.474	0.417
101.33 kPa, x2 = 0.9	0.553	–	0.482	0.423
101.33 kPa, x2 = 0.95	0.566	–	0.491	0.432

N + CO
viscosity [mPa·s], 100 kPa
Conditions	303 K	313 K
x1 = 0.16	0.48	0.4
x1 = 0.23	0.48	0.39

C[N+](=O)[O-] + COC(C)=O
298.15 K, 101 kPa
Conditions	viscosity [mPa·s]
x1 = 0.1415	0.4094
x1 = 0.271	0.4445
x1 = 0.3891	0.4757
x1 = 0.498	0.5048
x1 = 0.5977	0.5313
x1 = 0.6903	0.5553
x1 = 0.7763	0.5776
x1 = 0.8562	0.5968
x1 = 0.9303	0.6147

C[N+](=O)[O-] + CS(C)=O
viscosity [mPa·s], 101.3 kPa
Conditions	x2 = 0.1135	x2 = 0.117	x2 = 0.2337	x2 = 0.2468	x2 = 0.432	x2 = 0.4324	x2 = 0.5837	x2 = 0.5943	x2 = 0.812	x2 = 0.8156
298 K	0.726	–	0.823	–	1.014	–	–	1.229	1.613	–
318 K	–	0.5753	–	0.6471	–	0.7717	0.8878	–	–	1.12

Cc1cccc(O)c1 + C[N+](C)(C)CCO.[Cl-]
298.15 K, 101.33 kPa
Conditions	viscosity
x1 = 0.7	138.1 mPa·s
x1 = 0.8	74.18 mPa·s and 56.16 mPa·s and 49.24 mPa·s
x1 = 0.9	39.12 mPa·s

C[Si]1(C)O[Si](C)(C)O[Si](C)(C)O[Si](C)(C)O[Si](C)(C)O[Si](C)(C)O1 + C[Si](C)(C)O[Si](C)(C)O[Si](C)(C)O[Si](C)(C)C
Conditions	viscosity [mPa·s]
298.15 K, 101 kPa, x2 = 0.457	3.47

C[N+](=O)[O-] + Cc1ccc(C)cc1
293.15 K, 101.33 kPa
Conditions	viscosity [mPa·s]
x1 = 0.1151	0.632
x1 = 0.2724	0.628
x1 = 0.4256	0.626
x1 = 0.481	0.625
x1 = 0.6051	0.625
x1 = 0.6915	0.626
x1 = 0.794	0.627
x1 = 0.8837	0.632

C[N+](=O)[O-] + Cc1ccccc1
298.15 K, 101 kPa
Conditions	viscosity [mPa·s]
x1 = 0.1803	0.5448
x1 = 0.3318	0.5368
x1 = 0.4595	0.5331
x1 = 0.5699	0.534
x1 = 0.665	0.542
x1 = 0.7483	0.5534
x1 = 0.8226	0.5683
x1 = 0.888	0.5861
x1 = 0.9472	0.6066

Cc1cccc(O)c1 + Cc1ccccc1
308.15 K, 101 kPa
Conditions	viscosity [mPa·s]
x1 = 0.0892	0.5693
x1 = 0.198	0.7009
x1 = 0.3227	0.9138
x1 = 0.4371	1.215
x1 = 0.5644	1.71
x1 = 0.6801	2.44
x1 = 0.7905	3.416
x1 = 0.8866	4.871
x1 = 0.9596	6.414

CCCCC(CC)COP(=O)(O)OCC(CC)CCCC (stereo unspecified) + Cc1ccccc1C
viscosity [mPa·s], 101 kPa
Conditions	x1 = 0.1	x1 = 0.2	x1 = 0.398	x1 = 0.606	x1 = 0.796	x1 = 0.9
303.15 K	1.039	2.217	8.93	29.43	77.84	124.5
308.15 K	0.981	2.056	7.798	24.38	61.89	96.93
313.15 K	0.915	1.88	6.923	20.18	48.95	76.04
318.15 K	0.867	1.743	5.965	18.03	41.55	63.57

Cc1cccc(O)c1 + Cc1ccccc1N
298.15 K, 101 kPa
Conditions	viscosity [mPa·s]
x1 = 0.33	8.06
x1 = 0.496	11.21
x1 = 0.662	13.84
x1 = 0.751	13.76

CCC1(C)OC1C#N (stereo unspecified) + ClC(Cl)(Cl)Cl
viscosity [mPa·s], 101 kPa
Conditions	293.15 K	298.15 K	303.15 K	313.15 K	323.15 K
x1 = 0.0076	0.977	0.906	0.875	0.75	0.646
x1 = 0.008	0.983	0.938	0.873	0.776	0.698

CCCCOCCOCCOCCO + ClC(Cl)=C(Cl)Cl
298.15 K, 101.33 kPa
Conditions	viscosity [mPa·s]
x2 = 0.0067	0.864
x2 = 0.0173	0.895
x2 = 0.0345	0.95
x2 = 0.0476	0.995
x2 = 0.06	1.04
x2 = 0.0815	1.124
x2 = 0.1063	1.227
x2 = 0.1471	1.408
x2 = 0.184	1.601
x2 = 0.2264	1.828
x2 = 0.2617	2.046
x2 = 0.3067	2.351
x2 = 0.348	2.66
x2 = 0.377	2.889
x2 = 0.415	3.192
x2 = 0.4588	3.55
x2 = 0.491	3.816
x2 = 0.5348	4.198
x2 = 0.576	4.576
x2 = 0.6201	4.978
x2 = 0.6577	5.357
x2 = 0.7089	5.881
x2 = 0.7558	6.354
x2 = 0.8037	6.872
x2 = 0.8566	7.45
x2 = 0.9013	7.964
x2 = 0.9283	8.26
x2 = 0.9521	8.528
x2 = 0.9738	8.793

CCCCOCCOCCOCCO + ClC=C(Cl)Cl
298.15 K, 101.33 kPa
Conditions	viscosity [mPa·s]
x1 = 0.008	0.55
x1 = 0.0207	0.583
x1 = 0.0326	0.62
x1 = 0.0484	0.671
x1 = 0.0692	0.742
x1 = 0.0868	0.809
x1 = 0.1122	0.913
x1 = 0.1472	1.064
x1 = 0.1817	1.242
x1 = 0.2132	1.421
x1 = 0.2487	1.641
x1 = 0.2772	1.839
x1 = 0.3104	2.088
x1 = 0.3418	2.329
x1 = 0.3841	2.663
x1 = 0.4202	2.968
x1 = 0.4555	3.288
x1 = 0.4882	3.585
x1 = 0.5244	3.929
x1 = 0.5826	4.489
x1 = 0.6409	5.1
x1 = 0.6866	5.591
x1 = 0.7428	6.2
x1 = 0.8128	6.968
x1 = 0.8883	7.84
x1 = 0.9261	8.238
x1 = 0.967	8.732
x2 = 0.0136	8.939

CCCCC(CC)COP(=O)(O)OCC(CC)CCCC (stereo unspecified) + Clc1ccccc1
viscosity [mPa·s], 101 kPa
Conditions	x1 = 0.0374	x1 = 0.0804	x1 = 0.1303	x1 = 0.1888	x1 = 0.2587	x1 = 0.3436	x1 = 0.4481	x1 = 0.5826	x1 = 0.7584
303.15 K	0.8898	1.127	1.45	1.903	2.556	3.531	5.039	7.539	11.9
313.15 K	0.766	0.9413	1.176	1.498	1.953	2.619	3.629	5.271	8.078
323.15 K	0.6693	0.7965	0.9633	1.187	1.497	1.939	2.595	3.637	5.374

CCCC[n+]1cc[nH]c1.O=S(=O)([N-]S(=O)(=O)C(F)(F)F)C(F)(F)F + N
Conditions	viscosity [mPa·s]
313.2 K, 101.33 kPa, x2 = 0.7076	9.866

Cc1cccc(O)c1 + Nc1ccccc1
298.15 K, 101 kPa
Conditions	viscosity [mPa·s]
x1 = 0.3	6.799
x1 = 0.374	8.194
x1 = 0.461	9.622
x1 = 0.549	11.12
x1 = 0.631	12.2
x1 = 0.778	12.31

[Br-].[Br-].[Br-].[Sb+3] + Nc1ccccc1
323.15 K, 101 kPa
Conditions	viscosity [mPa·s]
x1 = 0.1	6.997
x1 = 0.25	182.4
x1 = 0.333	2175
x1 = 0.4	7012
x1 = 0.45	20680
x1 = 0.47	23030
x1 = 0.49	24420
x1 = 0.5	24690
x1 = 0.51	20780
x1 = 0.53	16040
x1 = 0.55	7888
x1 = 0.6	3022
x1 = 0.75	272.9
